The values below come from patent US8158792B2, “Spiropiperidines for use as tryptase inhibitors” (Janssen Pharmaceutica N.V., priority 2007, dated 2012).

The target in this experiment is human lung tryptase. As to the kind of experiment: β-Tryptase In-Vitro Enzyme Assay. Type of experiment: biochemical. Conditions: human lung tryptase 1 nM, substrate H-D-HHT-Ala-Arg-pNa 500 μM, pH 7.4, room temperature. Here is the method: The β-tryptase assay was conducted with human lung tryptase (Cortex Biochem #CP3033) in an aqueous buffer (10 mM Tris, 10 mM Hepes, 150 mM NaCl, 0.1% PEG 8000, pH 7.4) using the chromogenic substrate H-D-HHT-Ala-Arg-pNa. […] Percent inhibition was calculated by comparing the initial reaction velocity of samples without inhibitor to those with inhibitor. The initial reaction velocities were analyzed using Microsoft Excel.
By IC50 is commonly meant the concentration that inhibits the measured activity by half. Higher therefore signals weaker potency in that assay. Molecule `NCc1ccc2c(c1)C1(CCN(C(=O)c3ccc(C#Cc4ccccc4)o3)CC1)CN2S(=O)(=O)c1cccs1` [Cpd 358, 1-(5-phenylethynyl-furan-2-yl)carbonyl-1′-thien-2-ylsulfonyl-5′-aminomethyl-spiro[piperidine-4,3′-(2H)-indole]] yielded an IC50 of 26 nM.
On to `NCc1ccc2c(c1)C1(CCN(C(=O)c3cc4ccccc4oc3=O)CC1)CO2` [Cpd 196, 1-(2-oxo-(2H)-chromen-3-yl)carbonyl-5′-aminomethyl-spiro[piperidine-4,3′-(2H)-benzo[b]furan]], for which the concentration for half-maximal inhibition (IC50) was 680 nM.
As for `NCc1ccc2c(c1)C1(CCN(C(=O)c3cccc4c3Cc3ccccc3-4)CC1)CO2` [Cpd 269, 1-fluoren-1-ylcarbonyl-5′-aminomethyl-spiro[piperidine-4,3′-(2H)-benzo[b]furan]], the figure is 1000 nM.
Molecule `NCc1ccc2c(c1)C1(CCN(C(=O)C3CC(=O)c4ccccc43)CC1)CO2` (stereo not shown) [Cpd 287, 1-(3-oxo-indan-1-yl)carbonyl-5′-aminomethyl-spiro[piperidine-4,3′-(2H)-benzo[b]furan]] returned an IC50 of 4300 nM.
The molecule `NCc1ccc2c(c1)C1(CCN(C(=O)c3ccc(C#Cc4ccccc4)o3)CC1)CN2S(=O)(=O)c1ccc(C(=O)O)o1` [Cpd 337, 1-(5-phenylethynyl-furan-2-yl)carbonyl-1′-(5-carboxy-furan-2-yl)sulfonyl-5′-aminomethyl-spiro[piperidine-4,3′-(2H)-indole]] yielded an IC50 of 36 nM.
As for `NCc1ccc2c(c1)C1(CCN(C(=O)c3ccc(COc4ccc(F)cc4)o3)CC1)CO2` [Cpd 154, 1-[5-(4-fluoro-phenoxymethyl)-furan-2-yl]carbonyl-5′-aminomethyl-spiro[piperidine-4,3′-(2H)-benzo[b]furan]], the figure is 260 nM.
The molecule `NCc1ccc2c(c1)C1(CCN(C(=O)Cc3ccc4ccccc4c3)CC1)CO2` [Cpd 84, 1-naphthalen-2-ylmethylcarbonyl-5′-aminomethyl-spiro[piperidine-4,3′-(2H)-benzo[b]furan]] registered a half-inhibitory concentration (IC50) of 1400 nM.
On to `CSc1cccc(C(=O)N2CCC3(CC2)COc2ccc(CN)cc23)c1` [Cpd 57, 1-(3-methylthio-phenyl)carbonyl-5′-aminomethyl-spiro[piperidine-4,3′-(2H)-benzo[b]furan]], for which the IC50 is 180 nM.
The molecule `NCc1ccc2c(c1)C1(CCN(C(=O)c3ccc(C#Cc4ccccc4)o3)CC1)CN2S(=O)(=O)c1csc(C(=O)O)c1` [Cpd 347, 1-(5-phenylethynyl-furan-2-yl)carbonyl-1′-(5-carboxy-thien-3-yl)sulfonyl-5′-aminomethyl-spiro[piperidine-4,3′-(2H)-indole]] yielded a concentration for half-maximal inhibition (IC50) of 24 nM.
With `NCc1ccc2c(c1)C1(CCN(C(=O)c3ccc(Oc4cc(C(F)(F)F)cc(C(F)(F)F)c4)cc3)CC1)CO2` [Cpd 279, 1-[4-(3,5-bis-trifluoromethyl-phenoxy)-phenyl]carbonyl-5′-aminomethyl-spiro[piperidine-4,3′-(2H)-benzo[b]furan]], the IC50 turned out to be 8000 nM.
Regarding `NCc1ccc2c(c1)C1(CCN(C(=O)/C=C/c3ccccc3F)CC1)CO2` [Cpd 309, (E)-1-(2-fluoro-phenylethenyl)carbonyl-5′-aminomethyl-spiro[piperidine-4,3′-(2H)-benzo[b]furan]], the IC50 stood at 100 nM.
Turning to `NCc1ccc2c(c1)C1(CCN(C(=O)/C=C\c3ccco3)CC1)CO2` [Cpd 242, (Z)-1-(furan-2-ylethenyl)carbonyl-5′-aminomethyl-spiro[piperidine-4,3′-(2H)-benzo[b]furan]], the IC50 was 650 nM.
The value for `COc1cc(CC(=O)N2CCC3(CC2)COc2ccc(CN)cc23)ccc1OCc1ccccc1` [Cpd 106, 1-(3-methoxy-4-benzyloxy-benzyl)carbonyl-5′-aminomethyl-spiro[piperidine-4,3′-(2H)-benzo[b]furan]] was 610 nM; that for `NCc1ccc2c(c1)C1(CCN(C(=O)c3snnc3-c3ccccc3)CC1)CO2` [Cpd 217, 1-(4-phenyl-[1,2,3]thiadiazol-5-yl)carbonyl-5′-aminomethyl-spiro[piperidine-4,3′-(2H)-benzo[b]furan]] was 650 nM.
Molecule `CCOC(=O)C(=O)N1CC2(CCN(C(=O)c3ccc(C#Cc4ccccc4)o3)CC2)c2cc(CN)ccc21` [Cpd 329, 1-(5-phenylethynyl-furan-2-yl)carbonyl-1′-(2-ethoxy-1,2-dioxo-ethyl)-5′-aminomethyl-spiro[piperidine-4,3′-(2H)-indole]] displayed an IC50 of 44 nM.
As for `CN(C)c1cccc(C(=O)N2CCC3(CC2)COc2ccc(CN)cc23)c1` [Cpd 56, 1-(3-dimethylamino-phenyl)carbonyl-5′-aminomethyl-spiro[piperidine-4,3′-(2H)-benzo[b]furan]], the figure is 190 nM; as for `Cc1c(C(=O)N2CCC3(CC2)COc2ccc(CN)cc23)oc2c1C(=O)CC(c1ccccc1)C2` (stereo not shown) [Cpd 222, 1-(3-methyl-4-oxo-6-phenyl-5,6,7-trihydro-4H-benzo[b]furan-2-yl)carbonyl-5′-aminomethyl-spiro[piperidine-4,3′-(2H)-benzo[b]furan]], 260 nM; as for `NCc1ccc2c(c1)C1(CCN(C(=O)Cc3ccc(-c4ccccc4)cc3)CC1)CO2` [Cpd 92, 1-(4-phenyl-benzyl)carbonyl-5′-aminomethyl-spiro[piperidine-4,3′-(2H)-benzo[b]furan]], 490 nM.
Molecule `CCc1ccc2c(Cl)c(C(=O)N3CCC4(CC3)COc3ccc(CN)cc34)sc2c1` [Cpd 271, 1-(3-chloro-6-ethyl-benzo[b]thien-2-yl)carbonyl-5′-aminomethyl-spiro[piperidine-4,3′-(2H)-benzo[b]furan]] displayed an IC50 of 2800 nM.
`Cc1nn(-c2ccc(C(=O)N3CCC4(CC3)COc3ccc(CN)cc34)o2)c(C)c1Br` [Cpd 150, 1-[5-(3,5-dimethyl-4-bromo-pyrazol-1-yl)-furan-2-yl]carbonyl-5′-aminomethyl-spiro[piperidine-4,3′-(2H)-benzo[b]furan]] yielded a 50% inhibitory concentration (IC50) of 180 nM.
`Cc1nc(-c2ccc(C(=O)N3CCC4(CC3)COc3ccc(CN)cc34)s2)cs1` [Cpd 206, 1-[5-(2-methyl-thiazol-4-yl)-thien-2-yl]carbonyl-5′-aminomethyl-spiro[piperidine-4,3′-(2H)-benzo[b]furan]] displayed a concentration for half-maximal inhibition (IC50) of 260 nM.
`NCc1ccc2c(c1)C1(CCN(C(=O)c3cc4ccccc4[nH]3)CC1)CO2` [Cpd 285, 1-1H-indol-2-ylcarbonyl-5′-aminomethyl-spiro[piperidine-4,3′-(2H)-benzo[b]furan]] gave an IC50 of 360 nM.
For `CS(=O)(=O)c1ccc(C(=O)N2CCC3(CC2)COc2ccc(CN)cc23)s1` [Cpd 169, 1-(5-methylsulfonyl-thien-2-yl)carbonyl-5′-aminomethyl-spiro[piperidine-4,3′-(2H)-benzo[b]furan]], the midpoint of inhibition, the IC50, lay at 1600 nM.
With `CS(=O)(=O)c1cccc(C(=O)N2CCC3(CC2)COc2ccc(CN)cc23)c1` [Cpd 72, 1-(3-methylsulfonyl-phenyl)carbonyl-5′-aminomethyl-spiro[piperidine-4,3′-(2H)-benzo[b]furan]], the IC50 is 520 nM.
As for `CC(=O)N/C(=C\c1ccccc1)C(=O)N1CCC2(CC1)COc1ccc(CN)cc12` [Cpd 205, (Z)-1-(1-methylcarbonylamino-2-phenylethenyl)carbonyl-5′-aminomethyl-spiro[piperidine-4,3′-(2H)-benzo[b]furan]], the IC50 amounted to 740 nM.
